From patent publication US6806359B1, “Hormone receptor compositions and methods” (The Salk Institute for Biological Studies, priority 1986, dated 2004)
“Also recorded” adds a separate entry of the source.

Assays:
rTR alpha = target: T1, rTR alpha (Rattus norvegicus, UniProt P63059); assay: ^125I-T3 binding to in vitro translated rTR alpha (Scatchard and competition); conditions: excess competitor
T1 construct: made in house; host or cells: rabbit reticulocyte lysate (SP6 transcripts of rbeA12B)
T1 sequence (P63059 1-410 isoform P63059-2): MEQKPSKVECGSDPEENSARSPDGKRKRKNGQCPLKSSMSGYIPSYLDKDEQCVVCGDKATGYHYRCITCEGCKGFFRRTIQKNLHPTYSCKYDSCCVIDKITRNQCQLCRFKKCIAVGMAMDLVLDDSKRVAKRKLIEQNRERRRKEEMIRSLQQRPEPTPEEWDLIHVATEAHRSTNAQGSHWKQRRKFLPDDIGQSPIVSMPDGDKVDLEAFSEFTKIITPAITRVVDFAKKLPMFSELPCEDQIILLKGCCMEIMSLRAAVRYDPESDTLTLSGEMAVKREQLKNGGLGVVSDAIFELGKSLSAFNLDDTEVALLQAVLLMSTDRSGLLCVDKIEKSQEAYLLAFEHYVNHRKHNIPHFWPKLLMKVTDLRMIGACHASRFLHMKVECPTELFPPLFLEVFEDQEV
Text: In vitro translation and thyroid hormone binding of rTR alpha FIG. 69 rTR alpha was transcribed in vitro and translated in a rabbit reticulocyte lysate. […] Lane 1, no added RNA; lane 2, rbeA12, which contains the entire 5′ untranslated region; lane 3, rbeA12B, which contains only 97 bp of 5′ untranslated sequence. […] Samples from rbeA12B programmed lysates were mixed with increasing concentrations of unlabeled thyroid hormone or analogs to compete with labeled hormone. […] In vitro transcription and translation and hormone binding were performed as described (22, 23).
23. For in vitro transcription, the entire EcoRI insert of rbeA12 was cloned into pGEM1 (Promega Biotec). […] For thyroid hormone binding, transcriptions were performed with SP6 polymerase and 5 to 10 micrograms of rbeA12B linearized with SstI. […] Thyroid hormone binding for both the Scatchard and competition analyses were determined in the same manner, except that unlabeled protein was used for the Scatchard analysis. […] Specific hormone binding was determined by adding a 1000-fold excess of unlabeled hormone and assayed by counting radioactivity eluting in the excluded volume from a Sephadex G-25 fine (Pharmacia) 0.9-by 4.0-cm. column.

GR [1] = target: T2, GR (Homo sapiens, UniProt P04150); conditions: read-out: KD for binding to GR; cited from earlier work
T2 sequence (P04150 1-777): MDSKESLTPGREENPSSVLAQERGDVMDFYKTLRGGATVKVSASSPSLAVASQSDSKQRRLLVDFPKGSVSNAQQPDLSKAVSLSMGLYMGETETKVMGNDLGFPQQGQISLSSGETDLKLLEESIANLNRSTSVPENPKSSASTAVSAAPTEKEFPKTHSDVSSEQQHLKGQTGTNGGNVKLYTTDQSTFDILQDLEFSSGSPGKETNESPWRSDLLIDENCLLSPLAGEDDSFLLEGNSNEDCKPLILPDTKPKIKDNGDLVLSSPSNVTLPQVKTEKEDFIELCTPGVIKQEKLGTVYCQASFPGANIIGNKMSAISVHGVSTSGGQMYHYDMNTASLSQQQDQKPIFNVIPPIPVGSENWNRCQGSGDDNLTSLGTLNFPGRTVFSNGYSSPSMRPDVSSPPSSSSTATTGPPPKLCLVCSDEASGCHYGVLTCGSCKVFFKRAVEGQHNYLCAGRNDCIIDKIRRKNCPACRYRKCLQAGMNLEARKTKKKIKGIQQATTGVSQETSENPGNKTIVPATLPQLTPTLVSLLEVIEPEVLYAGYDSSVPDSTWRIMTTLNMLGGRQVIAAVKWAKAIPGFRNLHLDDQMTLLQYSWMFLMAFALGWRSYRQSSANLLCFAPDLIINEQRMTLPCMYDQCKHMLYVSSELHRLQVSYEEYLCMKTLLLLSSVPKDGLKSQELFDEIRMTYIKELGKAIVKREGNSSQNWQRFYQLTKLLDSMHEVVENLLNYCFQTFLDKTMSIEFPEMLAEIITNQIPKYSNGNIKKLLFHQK

GR [2] = target: T2, GR; assay: Transcriptional activation of MMTV LTR (GMCAT) by hGR in transfected CV1 cells; format: cell-based; design: The expression vector linking the RSV LTR to full length hGR cDNA (pRShGR alpha) was designed to obtain high levels of expression; expressed in transfected cells; host or cells: CV1 monkey kidney cells, cotransfected with GMCAT; conditions: pRShGR alpha + GMCAT, 10 nM steroid
MR = conditions: read-out: reported KD values for aldosterone binding to MR; cited from earlier work
hMR [3] = target: T3, hMR (Homo sapiens, UniProt P08235); assay: Transcriptional activation of MMTV LTR (GMCAT) by hMR in transfected CV1 cells; format: cell-based; design: expressed in transfected cells; conditions: pRShMR + GMCAT, charcoal-treated serum, 10 nM steroid
T3 sequence (P08235 1-984): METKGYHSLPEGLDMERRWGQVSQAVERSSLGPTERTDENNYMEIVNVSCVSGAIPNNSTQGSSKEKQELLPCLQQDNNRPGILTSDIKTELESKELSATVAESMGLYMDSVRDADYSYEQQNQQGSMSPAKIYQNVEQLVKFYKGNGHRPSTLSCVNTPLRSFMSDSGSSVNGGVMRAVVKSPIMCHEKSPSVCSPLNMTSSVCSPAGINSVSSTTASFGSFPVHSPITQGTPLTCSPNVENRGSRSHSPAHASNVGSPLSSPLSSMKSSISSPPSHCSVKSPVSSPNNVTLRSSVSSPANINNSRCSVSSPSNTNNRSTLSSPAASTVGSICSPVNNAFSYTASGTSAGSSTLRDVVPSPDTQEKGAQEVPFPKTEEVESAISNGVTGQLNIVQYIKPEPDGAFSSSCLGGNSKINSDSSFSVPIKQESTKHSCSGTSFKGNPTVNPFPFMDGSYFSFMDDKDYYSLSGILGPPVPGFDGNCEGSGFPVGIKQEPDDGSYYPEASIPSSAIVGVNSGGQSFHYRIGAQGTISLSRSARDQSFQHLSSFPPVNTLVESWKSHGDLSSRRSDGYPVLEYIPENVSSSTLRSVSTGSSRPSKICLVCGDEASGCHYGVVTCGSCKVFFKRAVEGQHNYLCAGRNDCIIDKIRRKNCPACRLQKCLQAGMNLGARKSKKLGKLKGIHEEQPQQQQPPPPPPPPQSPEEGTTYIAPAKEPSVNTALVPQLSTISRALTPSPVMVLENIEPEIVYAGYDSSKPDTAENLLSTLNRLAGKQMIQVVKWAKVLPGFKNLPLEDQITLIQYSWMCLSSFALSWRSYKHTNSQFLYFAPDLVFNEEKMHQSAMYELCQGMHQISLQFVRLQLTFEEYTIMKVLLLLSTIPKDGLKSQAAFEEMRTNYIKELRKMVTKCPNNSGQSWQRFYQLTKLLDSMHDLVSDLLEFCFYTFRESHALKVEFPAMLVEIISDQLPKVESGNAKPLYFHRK
Text: Steroid hormone action is characterized by hormone-dependent modulation of target gene transcription. The assay for transcriptional regulation by transfected hGR in CVI cells (see Experimental Section II) was adapted to hMR (FIGS. 42 and 44). The expression plasmid used for steroid-binding assays, pRShMR, was cotransfected with a reporter plasmid called GMCAT, which contains the MMTV LTR linked to the bacterial gene for chloramphenicol acetyltransferase (CAT). Thus CAT activity provides an enzymatic assay for the transcriptional activity of the MMTV promoter. The MMTV promoter contains several glucorticoid response elements (GRE's), enhancer-like DNA sequences that confer glucocorticoid responsiveness via interaction with the GR (21).
FIG. 42 Structure of GMCAT. This plasmid was cotransfected with the steroid receptors as a reporter gene for hormone-dependent transcriptional activation (see Experimental Section II). […] Transfected cells were maintained in DMEM with 5 percent fetal calf serum. Serum was treated with charcoal to eliminate free steroids in subsequent experiments so that the effects of exogenous steroids could be determined. […] (D) AC, 3-acetylchloramphenicol; C, chloramphenicol. Two days after transfection by calcium phosphate coprecipitation (43), extracts were prepared for CAT assay (44). The assays were incubated for 6 hours with 50 micrograms of protein extract.

hMR [4] = target: T3, hMR; assay: [^3H]aldosterone binding and steroid competition in extracts of pRShMR-transfected COS cells; design: expressed in transfected cells; host or cells: COS cells transfected with pRShMR (DEAE-dextran); conditions: 1-, 10-, or 100-fold molar excess of unlabeled steroid
Experimental: Ligand specificity of the hMR protein was determined by preparing cytosol extracts from COS cells transfected with pRShMR. Two days after transfection, cells were harvested, and hormone binding was measured by a dextran-treated charcoal assay. […] This provided a measure of the relative affinity of each of these steroids for hMR.
Steroid-binding properties of expressed hMR. FIG. 38 Structure of pRShMR, the hMR expression plasmid (41). […] Each point was assayed in triplicate with 100 micrograms of extract protein in a 200-microliter incubation at 0° C. for 2.5 hours. […] The results of two independent trials representative of these competition experiments are shown. Cold competitor was present in 1-, 10-, or 100-fold molar excess. […] Subconfluent COS cells were transfected by the DEAE-dextran method (42) with 10 micrograms of pRShMR per dish. Cells were maintained for 2 days in DMEM (Dulbecco's modification of Eagle's minimum essential medium) with 5 percent charcoal-treated fetal calf serum, then harvested in […] tris-HCl. (pH 7.8), 10 nM NaCl, 1 mM EDTA, 10 mM Na2MoO4, 5 mM dithiothreitol, antipain (5 microgram/ml), leupeptin (5 microgram/ml), and 500 microM phenylmethylsulfonyl fluoride. After centrifugation at 15,000×g for 10 minutes, extracts were adjusted to 100 mM NaCl and 5 percent glycerol before binding. […] After centrifugation at 15,000×g for 2 minutes at 40C, tritium in supernatant was quantified by liquid scintillation spectrophotometry.

[5] = target: T4, alpha-hGR (human glucocorticoid receptor) translated in vitro (Homo sapiens, UniProt P04150); assay: Steroid binding (^3H-triamcinolone acetonide) of hGR translated in vitro in reticulocyte lysate, competition by unlabeled steroids; conditions: 100-fold excess unlabeled competitor (15 microM), 2 h at 0° C.
T4 construct: We describe the use of the SP6 transcription vector system to generate analytical amounts of full-length protein; made in house; host or cells: rabbit reticulocyte lysate (cell-free translation of SP6 transcripts)
T4 sequence (P04150 1-777): T2 sequence (P04150 1-777)
Experimental: Steroid-binding of alpha-hGR translated in vitro. […] Bars represent bound ^3H-triamcinolone acetonide (TA) determined with a 100-fold excess of various steroid competitors; 100% competition was determined using unlabeled TA as competitor. The values represent the mean of triplicate determinations, with error bars showing […].
Binding assays were performed in 100 microliters containing 10 mM Tris-HCl pH 7.4, 100 mM NaCl, 1 mM EDTA, 10 mM sodium molybdate, 10 dithiothreitol, […] ^3H-TA (20 Ci mmol^−1, Amersham) and 10 microliters translation mixture or 100 microgram fresh 1M-9 cytosol. Unlabeled steroid competitor (15 microM) was added as indicated. After 2 h at 0° C., samples were extracted twice for 5 min. each with 5 microliter of 50% dextran-coated charcoal to remove unbound steroid, and counted.

Structure (SMILES)	competition for T3 binding to rTR alpha by excess compound (rTR alpha)	Kd (GR [1])	hGR-mediated CAT activity response (in words) (GR [2])	Kd (MR)	hMR-mediated CAT activity response (in words) (hMR [3])	relative affinity for hMR by competition with 5 nM [^3H]aldosterone (in words) (hMR [4])	relative affinity for hMR by competition with 5 nM [^3H]aldosterone (in words) (hMR [4]; listed as hydrocortisone)	competition with ^3H-TA binding to in vitro-synthesized alpha-hGR by excess unlabeled steroid [5]
C[C@]12CCC(=O)C=C1CC[C@@H]1[C@@H]2[C@@H](O)C[C@]2(C=O)[C@@H](C(=O)CO)CC[C@@H]12 [aldosterone]	no competition	25 to 65 nM	did not respond; also recorded: insensitive	0.5 to 3 nM	became responsive; also recorded: approximately equivalent			
C[C@]12CCC(=O)C=C1CC[C@@H]1[C@@H]2[C@@H](O)C[C@@]2(C)[C@H]1CC[C@]2(O)C(=O)CO [cortisol]					also observed	compete as effectively as aldosterone itself	very similar affinities	could be competed with
